Measured values: BindingDB's records for doi:10.1021/cb0500042 (Suny Stony Brook, 2006)

Key:
[1] = molecular target: T1, Enoyl-[acyl-carrier-protein] reductase [NADH] (Mycobacterium tuberculosis (strain ATCC 25618 / H37Rv), UniProt P9WGR1); assay: Measurement of Inhibition Constants; conditions: pH 6.8; 22 °C
T1 sequence (P9WGR1 whole entry): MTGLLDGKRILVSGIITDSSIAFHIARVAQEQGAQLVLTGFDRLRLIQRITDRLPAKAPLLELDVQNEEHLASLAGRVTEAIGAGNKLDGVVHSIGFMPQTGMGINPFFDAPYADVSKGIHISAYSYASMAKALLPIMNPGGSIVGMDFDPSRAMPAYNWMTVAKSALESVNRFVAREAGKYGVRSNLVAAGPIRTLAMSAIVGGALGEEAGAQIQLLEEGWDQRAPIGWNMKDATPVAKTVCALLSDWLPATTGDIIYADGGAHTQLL
Experimental: Inhibition constants (Ki) were calculated by determining the kcat and Km (DDCoA) values at several fixed inhibitor concentrations. The inhibition data were analyzed using the standard equation for uncompetitive inhibition. For compounds with Ki values in the low nanomolar range, initial velocities were determined at a fixed substrate concentration and the data were fit to the equation: vi/v0 = (Km + S)/(Km + S[1 + I/ Ki]). Where vi and v0 are the initial velocities in the presence and absence of inhibitor. […] Data fitting was performed using Grafit 4.0 (Erithacus Software Ltd.).

[2] = molecular target: T1, Enoyl-[acyl-carrier-protein] reductase [NADH]; assay: Enoyl-CoA Reductase Inhibition Assay; conditions: pH 6.8; 22 °C
Experimental: The assay measured the NADH-dependent catalysis of a DD-CoA substrate as a decrease in 340 nm absorbance resulting from conversion of NADH to NAD. The absorbance OD readings were taken on a microreader. The IC50 values were determined using at least eight concentrations, with each concentration assayed in triplicate under saturating substrate conditions. The values were calculated from plots of enzyme activity versus the log of the inhibitor concentration using the GraFit IC50 four-parameter fit software.

SMILES	Ki [1] [nM]	IC50 [2] [nM]
CCCCCCCCCCCCCCc1ccc(Oc2ccccc2)c(O)c1 [2-phenoxy-5-tetradecylphenol]	30.3	150
CCCCCCCCc1ccc(Oc2ccccc2)c(O)c1 [5-Octyl-2-phenoxy-phenol]	1.1	
CCCCCCc1ccc(Oc2ccccc2)c(O)c1 [5-hexyl-2-phenoxyphenol]	9.4	11
CCCCCc1ccc(Oc2ccccc2)c(O)c1 [5-pentyl-2-phenoxylphenol]	11.8	
NC(=O)C1=CN([C@@H]2O[C@H](CO[P@@](=O)(O)O[P@@](=O)(O)OC[C@H]3O[C@@H](n4cnc5c(N)ncnc54)[C@H](O)[C@@H]3O)[C@@H](O)[C@H]2O)C=C[C@@H]1C(=O)c1ccncc1 [[[(2R,3S,4R,5R)-5-(6-aminopurin-9-yl)-3,4-dihydroxy-oxolan-2-yl]methoxy-hydroxy-phosphoryl]oxy-[[(2R,3S,4R,5R)-5-[(4S)-3-carbamoyl-4-(pyridine-4-carbonyl)-4H-pyridin-1-yl]-3,4-dihydroxy-oxolan-2-yl]methoxy]phosphinic acid]	0.75	
